Patent publication EP4741383A1, “COMPOUND AND USE THEREOF AS ANTI-CANCER DRUG” (Tyligand Bioscience (Shanghai) Limited, priority 2023, dated 2025)

Each compound was assayed against T1, SHP2 enzyme (catalytic domain, amino acid sequence 224-528) (Homo sapiens, UniProt Q06124) (assay: SHP2 enzyme inhibition assay (DiFMUP substrate, fluorescence)). Details: not given.
T1 construct: purchased GenScript
T1 sequence (Q06124 224-528): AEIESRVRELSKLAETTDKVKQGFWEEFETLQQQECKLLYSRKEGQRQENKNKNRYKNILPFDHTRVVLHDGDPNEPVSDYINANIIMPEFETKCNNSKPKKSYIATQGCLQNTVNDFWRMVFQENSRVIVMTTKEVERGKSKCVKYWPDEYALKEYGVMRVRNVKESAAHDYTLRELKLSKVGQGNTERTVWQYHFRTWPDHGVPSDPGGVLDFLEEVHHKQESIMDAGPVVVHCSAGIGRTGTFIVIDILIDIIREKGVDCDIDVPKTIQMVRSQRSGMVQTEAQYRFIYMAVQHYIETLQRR
Type: biochemical
Experimental: This experiment evaluates the inhibitory effect of the test compounds on SHP2 enzyme activity by detecting the reaction between the human recombinant protein SHP2 enzyme and the substrate.
The stock solutions of the reaction buffer components were thawed and mixed homogeneously at room temperature, to prepare the reaction buffer (55 mM HEPES pH = 7.2 (Sigma, Cat. No. #PHR1428), 100 mM NaCl (Beyotime, Cat. No. #ST374, 5 M solution), 0.5 mM EDTA (Beyotime, Cat. No. #ST066), 1 mM DL-Dithiothreitol (DTT) (Sigma, Cat. No. #D9779), 0.002% BSA (Solarbio, Cat. No. #A8010), 0.001% Brij35 (Brij® L23 solution (Brij35) (Sigma, Cat. No. #B4184)). The SHP2 enzyme (catalytic domain, amino acid sequence 224-528, expressed and purified by GenScript) was thawed slowly on ice. 1 µL of this solution (1.37 mg/mL) was added to 386 µL of the reaction buffer to dilute it to 100 nM. Then, 120 µL of the 100 nM SHP2 enzyme solution was added to 2880 µL of reaction buffer to prepare a 4 nM SHP2 enzyme working solution. The test compounds and the specific inhibitor of SHP2 (11a-1, used as a positive control, Zeng, L. et al., J. Med. Chem. 2014, 57, 6594-6609) were prepared as 10 mM DMSO solutions. 10 µL of the 10 mM compound solution was mixed with 20 µL of DMSO solution, and then serially diluted 3-fold, resulting in 10 concentrations. 1 µL of the serially diluted solution was mixed with 99 µL of reaction buffer to obtain a 10-fold diluted compound working solution.
A 96-well black half-area microplate (Greiner, catalog #675076) was used. 25 µL of 4 nM SHP2 enzyme working solution and 5 µL of 10x compound working solution were added to each well and incubated at room temperature for 30 minutes. 15 µL of DiFMUP substrate (Thermo Fisher Scientific, catalog #D6567) was added to 2985 µL of reaction buffer to prepare a 50 µM substrate working solution. After incubation of the compounds and SHP2 enzyme, 20 µL of the 50 µM substrate working solution was added to each well and incubated at room temperature for 5 minutes. The plate was then read on a multi-mode microplate reader (BioTek, Synergy H1) at 340 nm/450 nm fluorescence.
Data were analyzed using GraphPad Prism 9.0 software. A non-linear S-curve regression dose-response-inhibition equation was used to fit the data and generate the dose-response curve, from which the IC50 value was calculated. [formula]
`O=C(Nc1ccc(-c2cc3cc(F)c(-c4nnn[nH]4)cc3n2C2CCC2)cc1)C(=O)Nc1ccc(N2CC(CCO)C2)cc1` [Example 9] showed an IC50 of 87 nM.

Same assay, conditions: SHP2 catalytic domain, DiFMUP substrate, 30 min pre-incubation; read-out: S HP2 I C50
For `O=C(Nc1ccc(-c2ccsc2)cc1)C(=O)Nc1ccc(-c2cc3cc(O)c(-c4nnn[nH]4)cc3n2C2CCC2)cc1` [Example 3], the IC50 was 278 nM. Work on `O=C(Nc1ccc(-c2ccsc2)cc1)C(=O)Nc1ccc(-c2cc3cc(Cl)c(-c4nnn[nH]4)cc3n2C2CCC2)cc1` [Example 5] yielded an IC50 of 105 nM. `O=C(Nc1ccc(-c2cc3cc(F)c(-c4nnn[nH]4)cc3n2C2CCC2)cc1)C(=O)Nc1ccc(N2CC(CO)C2)cc1` [Example 8] showed an IC50 of 130 nM. Work on `CC1(C#N)CCN(c2ccc(NC(=O)C(=O)Nc3ccc(-c4cc5cc(F)c(-c6nnn[nH]6)cc5n4C4CCC4)cc3)cc2)C1` (stereo not shown) [Example 11] yielded an IC50 of 30 nM. For `CC(O)C1CCN(c2ccc(NC(=O)C(=O)Nc3ccc(-c4cc5cc(F)c(-c6nnn[nH]6)cc5n4C4CCC4)cc3)cc2)C1` (stereo not shown) [Example 15], the IC50 was 183 nM. For `CC1CN(c2ccc(NC(=O)C(=O)Nc3ccc(-c4cc5cc(F)c(-c6nnn[nH]6)cc5n4C4CCC4)cc3)cc2)CC1CO` (stereo not shown) [Example 18], the IC50 was 74 nM. For `CC1(C)CN(c2ccc(NC(=O)C(=O)Nc3ccc(-c4cc5cc(F)c(-c6nnn[nH]6)cc5n4C4CCC4)cc3)cc2)CC1CO` (stereo not shown) [Example 19], the IC50 was 152 nM. `CC1(n2c(-c3ccc(NC(=O)C(=O)Nc4ccc(N5CCC(C6COC6)CC5)cc4)cc3)cc3cc(F)c(-c4nnn[nH]4)cc32)CCC1` [Example 21] was tested, and the IC50 was 68 nM. Compound `N#CC1CCN(c2ccc(NC(=O)C(=O)Nc3ccc(-c4cc5cc(F)c(-c6nnn[nH]6)cc5n4C4CCC4)cc3)cc2)CC1` [Example 22] has an IC50 of 38 nM. `CC1(n2c(-c3ccc(NC(=O)C(=O)Nc4ccc(N5CCC(CO)CC5)cc4)cc3)cc3cc(F)c(-c4nnn[nH]4)cc32)CCC1` [Example 24] gave an IC50 of 271 nM. `CC(C)(O)CCC1CCN(c2ccc(NC(=O)C(=O)Nc3ccc(-c4cc5cc(F)c(-c6nnn[nH]6)cc5n4C4CCC4)cc3)cc2)CC1` [Example 28] showed an IC50 of 92 nM. `CC(C)(O)C1CCN(c2ccc(NC(=O)C(=O)Nc3ccc(-c4cc5cc(F)c(-c6nnn[nH]6)cc5n4C4(C)CCC4)cc3)cc2)CC1` [Example 34] gave an IC50 of 72 nM. With `CC(C)(O)C1CCN(c2ccc(NC(=O)C(=O)Nc3ccc(-c4cc5cc(F)c(-c6nnn[nH]6)cc5n4C4(C)CC4)cc3)cc2)CC1` [Example 35] the IC50 was 174 nM. For `CC(C)(O)C1CCN(c2ccc(NC(=O)C(=O)Nc3ccc(-c4cc5cc(F)c(-c6nnn[nH]6)cc5n4CC4CC4)cc3)cc2)CC1` [Example 37], the IC50 was 44 nM. In the case of `CC(C)(O)C1CCN(c2ccc(NC(=O)C(=O)Nc3ccc(-c4cc5cc(F)c(-c6nnn[nH]6)cc5n4CC4CCC4)cc3)cc2)CC1` [Example 38], the IC50 is reported as 112 nM. `CC(C)(O)C1CCN(c2ccc(NC(=O)C(=O)Nc3ccc(-c4cc5cc(F)c(-c6nnn[nH]6)cc5n4CC(F)(F)F)cc3)cc2)CC1` [Example 39] showed an IC50 of 43 nM. `CC1(CO)CCN(c2ccc(NC(=O)C(=O)Nc3ccc(-c4cc5cc(F)c(-c6nnn[nH]6)cc5n4C4(C)CCC4)cc3)cc2)CC1` [Example 41] gave an IC50 of 63 nM. `CC1(CO)CCN(c2ccc(NC(=O)C(=O)Nc3ccc(-c4cc5cc(F)c(-c6nnn[nH]6)cc5n4C4(C)CC4)cc3)cc2)CC1` [Example 42] was tested, and the IC50 was 179 nM. `CCC1(CO)CCN(c2ccc(NC(=O)C(=O)Nc3ccc(-c4cc5cc(F)c(-c6nnn[nH]6)cc5n4C4CCC4)cc3)cc2)CC1` [Example 43] showed an IC50 of 52 nM. Compound `COCC1(CO)CCN(c2ccc(NC(=O)C(=O)Nc3ccc(-c4cc5cc(F)c(-c6nnn[nH]6)cc5n4C4CCC4)cc3)cc2)CC1` [Example 44] has an IC50 of 57 nM. With `O=C(Nc1ccc(-c2cc3cc(F)c(-c4nnn[nH]4)cc3n2C2CCC2)cc1)C(=O)Nc1ccc(N2CCC(F)(CO)CC2)cc1` [Example 45] the IC50 was 55 nM. For `CC1CN(c2ccc(NC(=O)C(=O)Nc3ccc(-c4cc5cc(F)c(-c6nnn[nH]6)cc5n4C4CCC4)cc3)cc2)CCC1CO` (stereo not shown) [Example 46], the IC50 was 45 nM.

Same assay, conditions: relative to 11a-1, IC50 = 0.108 µM
With `CC1(C#N)CCN(c2ccc(NC(=O)C(=O)Nc3ccc(-c4cc5cc(F)c(-c6nnn[nH]6)cc5n4C4CCC4)cc3)cc2)C1` (stereo not shown) [Example 11] the “SHP2 IC50 times lower than control compound 11a-1” value was 3-4 times. With `N#CC1CCN(c2ccc(NC(=O)C(=O)Nc3ccc(-c4cc5cc(F)c(-c6nnn[nH]6)cc5n4C4CCC4)cc3)cc2)CC1` [Example 22] the “SHP2 IC50 times lower than control compound 11a-1” value was 3-4 times.
